Row | Compound | melting point
1 | COc1ccccc1-c1ccc(C[C@H](NC(=O)c2c(Cl)cccc2Cl)C(=O)O)cc1C(C)=O | 87 to 89 °C
2 | Clc1ccc(-c2nc(Cl)cc(Cl)n2)cc1 | 120 to 121 °C
3 | FC(F)(F)c1cccc(-c2ncn(CC3CC3)c2-c2ccncc2)c1 | 106 °C
4 | NC(=O)Cn1c(=O)c2ncn3c2n(c1=O)CC=C3c1cccc(C(F)(F)F)c1 | 283 to 285 °C
5 | Nc1c(SC(F)(F)F)c(C(=O)NC2CC2)nn1-c1c(Cl)cc(C(F)(F)F)cc1Cl | 193 °C
6 | CN1CCN2c3ccc(Cl)cc3C(c3ccco3)=[N+]([O-])CC2C1 (stereo not drawn) | 202 to 204 °C
7 | COCOc1ccc(-n2c(SCc3ccc(Br)cc3)nc3ccc(Cl)cc32)cc1 | 123 to 124 °C
8 | COc1nsc(NC(=O)CBr)n1 | 198 to 199 °C
9 | CC(C)CCOc1ccc(S(=O)(=O)C2(C(=O)O)CCN(Cc3ccccc3)CC2)cc1 | 106 °C
10 | CCC(O)CN1CCC(CCN2CCN(c3cccc(Cl)c3Cl)CC2)CC1 (stereo not drawn) | 94 °C
11 | CC(=O)N1CCc2c(c3ccc(-n4ccc(OCc5ccc(F)cn5)cc4=O)cc3n2C)C1 | 220 to 224 °C
12 | CCC(CC)(CC)C(=O)NC(C)(C)CO | 57 to 58 °C
13 | O=c1[nH]c2sc3c(Cl)cccc3c2[nH]c1=O | > 300 °C
14 | CCCCCCCCCCN(C[C@H]1CC[C@H](CN(CCCCCCCCCC)C(=O)Nc2ccc(N(C)C)cc2)CC1)C(=O)Nc1ccc(N(C)C)cc1 | 125 to 127 °C
15 | CC(=O)Nc1cc(=O)cc2n1CCCCC2 | > 230 °C
16 | CN(C(=O)Cn1c(-c2ccc(Cl)cc2)nc2cccnc21)c1ccccc1 | 170 to 171 °C
17 | CN(C(=O)c1ccc2nonc2c1)C1CCC(=NO)CC1 (stereo not drawn) | 197 to 198 °C
18 | CSc1cccc(Oc2ncc(F)cc2C(=O)N[C@@H]2CCCC[C@@H]2O)c1 (relative stereo) | 99 to 101 °C
19 | O=C(O)Cc1ccc(Oc2ccc([N+](=O)[O-])cc2)cc1 | 132 to 136 °C
20 | CS(=O)(=O)C(=C1CN(C(c2ccccc2)c2ccccc2)C1)c1cccc(F)c1F | 208 °C
21 | Nc1c(F)c(F)cc(F)c1[N+](=O)[O-] | 66 °C
22 | CN1C(=O)C(C)(Cc2ccccc2)N(C)C(=O)C1=Cc1cccnc1Cl (stereo not drawn) | 146 °C

Row | Compound | melting point
23 | COc1ccc(COc2nc(C3CC3)c3cc(-c4cccc(Cl)c4)ccc3n2)cc1 | 158 to 159 °C
24 | CC1OC(=O)Nc2ccc(-c3cccc(F)c3)cc21 (stereo not drawn) | 160 to 161 °C
25 | CN1C(=O)CC[C@]2(C)c3ccc(-c4ccccc4C#N)cc3CC[C@@H]12 | 54 to 55 °C
26 | CNCC(=O)N1N=C(c2ccc(N)cc2)c2cc3c(cc2CC1C)OCO3 (stereo not drawn) | 198 to 200 °C
27 | CCOC(=O)c1ccc(-c2ccc(OCC(O)CO)c(-c3ccc4c(c3)C(C)(C)CCC4(C)C)c2)cc1 (stereo not drawn) | 56 °C
28 | OCC=CCOc1nc(F)c(Cl)cc1Cl | 30 °C
29 | CS(=O)(=O)NC(=O)C1(CCCCCCCCCCCCC2(C(=O)NS(C)(=O)=O)CC2)CC1 | 148 °C
30 | CSc1nn2c(O)cc(C)nc2c1S(=O)(=O)c1ccccc1 | > 220 °C
31 | COc1cc2cc(C(=O)N3CC(COS(C)(=O)=O)c4c3cc([N+](=O)[O-])c3ccccc43)[nH]c2c(OC)c1OC (stereo not drawn) | 214 °C
32 | Cc1ccc([N+](=O)[O-])cc1CCl | 56 to 62 °C
33 | O=c1[nH]c2cc(Cl)cc(Cl)c2c(=O)n1-c1ccccc1 | 314 to 319 °C
34 | Clc1ccc(-c2cc3ccccc3s2)cc1 | 193 to 194 °C
35 | ClCn1nnc2ccccc21 | 136 °C
36 | COc1ccc(-c2nn(C3CCC3)c3c(C(F)(F)F)cccc23)c(OC)c1 | 109 to 110 °C
37 | O=[N+]([O-])c1ccc(-n2ccnc2)cc1 | 150 °C
38 | CC(C#N)(c1ccc(Cl)c(C(F)(F)F)c1)c1ccc([N+](=O)[O-])cc1Cl (stereo not drawn) | 162 °C
39 | C#CCC1CC2C(CCC3(C)C(=O)CCC23)C2CCC(=O)C=C12 (stereo not drawn) | 186 to 188 °C
40 | CC(C)C1(C)CC(=O)CC(C)(C)N1 (stereo not drawn) | 47 to 53 °C
41 | CCCCCCCCCCCCCCCSCCO | 44 to 46 °C
42 | C[Si](Cn1ncnc1I)(c1ccc(F)cc1)c1ccc(F)cc1 | 102 to 104 °C
43 | O=[N+]([O-])c1c(-c2ccccc2)nn(CCCn2nc(-c3ccccc3)c([N+](=O)[O-])c2NCc2ccccc2)c1NCc1ccccc1 | 142 to 144 °C
44 | Fc1nc(Oc2ccc(CCNc3ncnc4nccnc34)cc2)c(F)c(C(F)(F)F)c1F | 103 to 108 °C

Row | Compound | melting point
45 | CC(C)Cc1cncc(O)n1 | 130 to 131 °C
46 | O=C(O)c1ccccc1-c1cc(-c2ccccc2)[nH]n1 | 204 to 206 °C
47 | CC(=O)c1c(-c2ccc(F)cc2)nn(CC2CC2)c(=O)c1Nc1cccc2ncccc12 | 169 to 170 °C
48 | O=C(Nc1cccnn1)N1CCN(c2nc(-c3ccccc3)ns2)CC1 | 185 to 186 °C
49 | CN(C)C(=O)C1Cc2c([nH]c3ccccc23)C(c2ccc3c(c2)OCO3)N1C(=O)C=Cc1ccccc1 (stereo not drawn) | 175 to 178 °C
50 | Cc1cc(C(=O)CCc2cc(-c3ccc(C(F)(F)F)cc3)nn2C(C)C)ccc1OCC(=O)O | 160 to 163 °C
51 | O=CN1CCN(c2ncc3c(=O)c(C(=O)ON4C(=O)CCC4=O)c[nH]c3n2)CC1 | > 300 °C
52 | CCOC(=O)C=CC=Cc1cn(-c2cccnc2)c2ccccc12 | 112 to 113 °C
53 | CCCCc1oc2ccccc2c1C(=O)c1ccc(N(CCN(CC)CC)S(=O)(=O)c2cccnc2)cc1 | 141 to 146 °C
54 | N#Cc1ccc(Nc2nnc(Cc3ccncc3)c3ccccc23)cc1 | 228 to 230 °C
55 | Cc1cc(-n2cncn2)c2cccc(OCc3c(Cl)ccc(S(=O)(=O)N4CCC[C@H]4C(=O)NCC4CCN(CCOCCO)CC4)c3Cl)c2n1 | 82 °C
56 | CCOC(=O)c1c(-c2cccc(Cl)c2)c2cc(C(c3nc(-c4ccccc4)cs3)n3ccnc3-c3ccccc3)ccc2[nH]c1=O (stereo not drawn) | 149 °C
57 | O=C(O)C1CSC(Cc2ccccc2)N1 (mixture of isomers) | 200 °C
58 | OC1CSC(Oc2cncc(-c3ccnc(F)c3)c2)C(O)C1O (stereo not drawn) | 208 °C
59 | CCCN(c1ccncc1)N1C(=O)C2(CCN(C)CC2)c2ccccc21 | 125 to 127 °C
60 | COC(=O)[C@@H]1NC(=O)[C@@H]1NC(=O)OC(C)(C)C (relative stereo) | 140 to 144 °C
61 | CC1CCN(CC#CCN2C(=O)c3cccc4c3N(CC4)c3ccccc32)CC1 | 157 to 158 °C
62 | CCOC1CC2(C)C(CCC3C4CC5OC5C4(C)CC(N(C)C)C32)CC1O (stereo not drawn) | 149 to 151 °C
63 | COC1OC(COCc2ccccc2)C(OCc2ccccc2)C(OCc2ccccc2)C1OCc1ccccc1 (stereo not drawn) | 68 to 69 °C
64 | CN1Cc2c(Br)ncn2-c2ccccc2C1=O | 196 to 198 °C
65 | CCN1CCc2ccc(Nc3ncc(Br)c(Nc4ccccc4C(=O)NC)n3)cc2CC1 | 203 to 204 °C

More lines, now with the values ahead:

Row | melting point | Compound
66 | 164 to 167 °C | Cc1cccc(C(=O)c2ccc(OCCOc3ccc(C(=O)c4cccc(C)c4)cc3)cc2)c1
67 | 78 to 79 °C | CC(C)(Cc1ccccc1)Oc1ccc([N+](=O)[O-])cc1
68 | 231 to 232 °C | CC1(C)C(=O)Oc2ccc3cc(C(N)=O)c(Cn4cncn4)cc3c21
69 | 150 to 153 °C | Cc1cccc(N2C(=S)SCC2(C)O)n1 (stereo not drawn)
70 | 220 to 221 °C | CC(C)Cn1c(CNC(=O)OC(C)(C)C)c(-c2ccc(Cl)cc2)c2cc(O)ccc2c1=O
71 | 143 °C | CC1(C(=O)CC(=O)c2ccc(S(C)(=O)=O)c(Cl)c2Cl)CC1
72 | 240 °C | Cc1nc2c3c(ccn2c1C)C(=O)[C@@](C)(O)[C@@H](c1ccccc1)N3
73 | 164 to 165 °C | CCNc1nc(Cc2cc(OC)c(OC)c(OC)c2)nc2sc(C#N)c(C)c12
74 | 121 to 122 °C | COc1ccc2c(c1)c(CC(=O)OCC(=O)O)c(C)n2C(=O)c1ccccc1C(F)(F)F
75 | 186 to 188 °C | CCOc1ccc(C2=CC(C)(C)Oc3c(OCC)cc(Cc4cnc(N)nc4N)cc32)cc1
76 | 175 to 178 °C | CCc1ccc2c(O)c(C(=O)O)cnc2c1
77 | 100 to 101 °C | COc1ccc2ccc3c(c2c1)CCC(=O)O3
78 | 153 °C | COc1ccc(C2COc3cc(O)c(O)cc3C2)cc1OC (stereo not drawn)
79 | 58 to 64 °C | CC(C)C(NC(=O)Cn1cc(Cc2ccccc2)cc(NC(=O)OCc2ccccc2)c1=O)C(=O)C(F)(F)F (stereo not drawn)
80 | 74.5 to 75 °C | C=CCOc1ccc(C(=O)C=Cc2ccc(OC)cc2OC)cc1
81 | 203 to 204 °C | Cc1nccc(C(N)=O)c1[N+](=O)[O-]
82 | 77 to 79 °C | COC(=O)c1ccc(OC)c(C(F)(F)F)c1

Row | melting point | Compound
83 | 128 to 131 °C | CC(=O)OCCn1c(=O)oc(=O)c2ccccc21
84 | 69 to 72 °C | COCCCNc1cc(C)ccc1N
85 | < 20 °C | CCOC(=O)C(C)Oc1ccc(-c2ccc(CCNC(=O)c3cc(Cl)ccc3OC)cc2)cc1 (stereo not drawn)
86 | 59 to 60 °C | OCCCc1cc(-c2ccc(C(F)(F)F)cc2)no1
87 | 189 to 191 °C | CCOC(=O)c1cn(C)c2cc(Br)ccc2c1=O
88 | 147 to 149 °C | CC(=O)c1cc(N(C)C)ccc1NC(=O)c1cccc(OCc2ccccc2)c1
89 | 63 to 65 °C | COc1cccc(C(O)c2cc3ccccc3s2)c1 (stereo not drawn)
90 | 117 to 118 °C | CCn1cc(CO)c(OCc2ccc(OCc3nc(-c4ccco4)oc3C)c(OC)c2)n1
91 | 187 to 188 °C | Cc1nc(N)c2nc(C)n(CCOCC#Cc3ccccc3)c2c1C
92 | 166 to 168 °C | COC(=O)c1cc2cc(OC)c(OC)cc2nc1/N=C/N(C)C
93 | 150 to 151 °C | CCOC(=O)CCc1c(C)c(NC(=O)CC(C)(C)C)c(C)c2c1OCC2c1ccc(C(C)C)cc1 (stereo not drawn)
94 | 54 °C | Cc1ccccc1CO[C@H]1COCO[C@H]1C (relative stereo)
95 | 99 to 100 °C | CC(=O)Nc1ccccc1C(C)=O
96 | 114 °C | C=Cc1cc(C)nc2c(OCc3ccccc3)cccc12
97 | 59 to 61 °C | CCOC(=O)c1ccc(COc2cccc3oc(C)cc23)cc1
98 | 136 to 138 °C | COc1cc(I)c(Oc2cnc(N)nc2N)cc1I

Source: a melting point compilation (Tetko et al.; mined from patent text by program, amines drawn as free bases though some values may be those of a salt)
